# Measured values published in US20230338510A1, “NOVEL C[…] EPITOPE P[…] AND USE THEREOF” (SHANGHAI INSTITUTE OF MATERIA MEDICA, CHINESE ACADEMY OF …, priority 2020, published 2023).
# Columns and labels:
# human ACE2 = human ACE2 (Homo sapiens, UniProt Q9BYF1); assay: in vitro binding of biotin-labeled LP2 to ACE2 by ELISA; settings: biotin-labeled polypeptide 1, 0.5 and 0.25 µg/mL, ACE2-coated plate; FIG. 10
# Experimental: In this example, LP2 was labeled with biotin, and its binding ability with human ACE2 was detected by ELISA.
# The specific determination method is as follows: the ELISA plate was coated overnight with 10ug/mL ACE2 and blocked, then biotin-labeled polypeptides of different concentrations (1, 0.5 and 0.25 µg/mL) were added. After incubated at 37° C. for 1.5 hours, HRP-Streptavidin A diluted in 1:5000 was added, and incubated at 37° C. for 1 hour. The plate was washed, then TMB was added for color development, and the plate was read at 450 nm wavelength after termination.
# RBD = assay type: in vivo; settings: cynomolgus monkeys, subcutaneous immunization with adjuvant, 14 days after the second immunization; FIG. 8
# binding of RBD to ACE2 = assay: competitive ELISA: ability of antiserum to block the binding of RBD and ACE2; assay type: in vivo, cynomolgus monkeys
# Chain of human ACE2 (Q9BYF1 18-805): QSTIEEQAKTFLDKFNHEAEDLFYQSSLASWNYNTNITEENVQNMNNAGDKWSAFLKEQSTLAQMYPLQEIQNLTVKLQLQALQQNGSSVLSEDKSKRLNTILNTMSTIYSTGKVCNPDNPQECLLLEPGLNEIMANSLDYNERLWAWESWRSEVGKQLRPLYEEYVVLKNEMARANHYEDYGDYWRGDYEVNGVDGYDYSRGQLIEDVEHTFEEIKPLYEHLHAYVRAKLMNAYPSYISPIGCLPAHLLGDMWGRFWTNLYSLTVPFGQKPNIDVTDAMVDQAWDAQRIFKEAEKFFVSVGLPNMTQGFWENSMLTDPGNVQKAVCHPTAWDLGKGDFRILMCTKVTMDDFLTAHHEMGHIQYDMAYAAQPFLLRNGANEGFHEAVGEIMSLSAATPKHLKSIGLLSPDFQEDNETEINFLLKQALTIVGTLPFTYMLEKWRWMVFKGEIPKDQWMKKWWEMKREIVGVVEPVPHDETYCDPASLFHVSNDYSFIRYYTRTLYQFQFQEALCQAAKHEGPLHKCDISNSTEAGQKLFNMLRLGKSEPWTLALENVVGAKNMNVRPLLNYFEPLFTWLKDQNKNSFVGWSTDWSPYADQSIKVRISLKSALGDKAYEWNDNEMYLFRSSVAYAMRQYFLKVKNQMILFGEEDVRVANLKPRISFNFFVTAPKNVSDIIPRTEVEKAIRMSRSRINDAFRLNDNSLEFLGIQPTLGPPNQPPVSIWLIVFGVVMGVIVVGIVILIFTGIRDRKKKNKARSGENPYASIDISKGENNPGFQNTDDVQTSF
sequence,measurement,setting,value
AKFVAAWTLKAAAGGGGYGFQPTNGVGYQPGGGGNYLYRLFRKSNLKPF [LP2],binding ability with ACE2,human ACE2,strong binding ability
same,titer of antibodies against RBD,RBD,higher titer of antibodies against RBD was produced
same,blocking effect of antiserum on the binding of RBD to ACE2,binding of RBD to ACE2; antiserum at 8-64 times of dilution,significant blocking effect
same,inhibition rate,binding of RBD to ACE2; antiserum at 8 times of dilution,more than 60%
same,inhibition rate,binding of RBD to ACE2; antiserum at 16 times of dilution,more than 40%
